Where two headings read alike, the source gives them in different places.
Columns and labels:
[1] = in vivo
Method: This was an open-label, two-period, sequential study conducted in 12 females chosen according to the protocol selection criteria. Each subject received elagolix 150 mg single dose with and without rifampin 600 mg q.d. for 10 days. Intensive blood samples for elagolix assay were collected up to 36 hours after elagolix dosing in both periods. Safety data, including adverse event monitoring, vital signs, ECGs, and laboratory tests were collected during the study.
Values for elagolix maximum concentration (Cmax) and area-under-the-curve (AUC) were estimated using noncompartmental methods. Analysis of variance was performed to compare elagolix Cmax and AUC with and without rifampin.

[2] = Pharmacokinetic interaction between elagolix and ketoconazole (open-label, two-period, sequential study); type: in vivo, human; conditions: elagolix 150 mg single dose on 4th day of six-day ketoconazole 400 mg q.d. vs elagolix alone; healthy premenopausal females
Method: In a second embodiment of this invention, it was discovered that ketoconazole increased elagolix exposure levels.
(§1) Each subject received elagolix 150 mg single dose alone and on the 4th day of a six-day regimen of ketoconazole 400 mg q.d.
Analysis of variance was performed to compare the pharmacokinetic parameters of elagolix with and without ketoconazole.

[3] = Safety in elagolix/ketoconazole interaction study (adverse events, vital signs, ECGs, laboratory tests); type: in vivo, human
Method: as §1
Adverse event rates across treatment periods were 0% (elagolix alone), 82% (ketoconazole alone), and 36% (co-administration). The most common adverse event was nausea, which was noted as probably related to ketoconazole alone. […] Mean elagolix plasma concentration—time profiles for elagolix administered with ketoconazole, versus elagolix administered alone, are shown in FIG. 2.

Row | Elagolix AUC increase [2] [fold] | Elagolix Cmax increase [2] [fold] | Structure (SMILES) | Vital signs, ECG or laboratory measurements [1] | Vital signs, ECG or laboratory measurements ([3]; in vivo) | Adverse event rate ([3]; drug alone treatment period, elagolix 150 mg single dose or ketoconazole 400 mg q.d., healthy premenopausal females) [%]
1 | 2.2 | 1.8 | COc1cccc(-c2c(C)n(Cc3c(F)cccc3C(F)(F)F)c(=O)n(C[C@H](NCCCC(=O)[O-])c3ccccc3)c2=O)c1F.[Na+] [Elagolix, 4-((R)-2-[5-(2-fluoro-3-methoxy-phenyl)-3-(2-fluoro-6-trifluoromethyl-benzyl)-4-methyl-2,6-dioxo-3,6-dihydro-2H-pyrimidin-1-yl]-1-phenyl-ethylamino)-butyric acid sodium salt] | No clinically significant vital signs, ECG or laboratory measurements were observed | No clinically significant vital signs, ECG or laboratory measurements were observed | –
2 | – | – | CC(=O)N1CCN(c2ccc(OCC3COC(Cn4ccnc4)(c4ccc(Cl)cc4Cl)O3)cc2)CC1 (centres unmarked) [ketoconazole, Ketoconazole, reference compound] | – | – | 82

From patent US10682351B2, “Methods of administering elagolix” (AbbVie Inc., priority 2015, dated 2020)
